Data on one compound can be found in PMC9841576, “Characterisation of C101248: A novel selective THIK-1 channel inhibitor for the modulation of microglial NLRP3-inflammasome” (Neuropharmacology, 2023).

A short description of one data set: CNS PK study in rats. In kind it is in vivo. To be noted: Sprague Dawley, rat, brain (unbound) / plasma (unbound), 10 or 30 mg/kg oral, 1, 2 or 4 h post dose, read-out: Kpu,u. As for the experimental part: (§1) In CNS PK studies, rodents (C57BL/6 mice or Sprague Dawley rats) were administered C101248 by oral gavage at 10 or 30 mg/kg. At specified timepoints post dose (0.5, 1, 2 or 4 h), blood samples were collected and processed to plasma (centrifugation at 5000 rpm, 4 °C for 10 min). Immediately following blood withdrawal, cerebrospinal fluid (CSF) samples were collected from the cisterna magna, whole body perfusion was conducted, and brain samples were collected and weighed. Samples were stored frozen at −80 ± 10 °C until analysis. Plasma, CSF, and brain samples were analysed using a fit for purpose bioanalytical method (LC-MS/MS) against a calibration curve containing QC samples. Brain:plasma and CSF:plasma were calculated based on brain concentration/plasma concentration at the same timepoint. Unbound partition coefficient (Kpu,u) values were calculated based on unbound brain concentration/unbound plasma concentration at the same timepoint. Unbound concentrations were derived by adjusting plasma concentrations for the fraction unbound in plasma based on in vitro plasma protein binging (PPB) values and brain concentrations for the unbound fraction in brain tissue based on in vitro brain tissue binding (BTB) values.

Another data set is described as follows: CNS PK study in mice. The format is in vivo. To be noted: 30 mg/kg single oral, male mice; for Kp: C57BL/6, mouse, 0.25-2 h post dose. As for the experimental part: as §1
The target in another data set is T1, THIK-1 (Homo sapiens, UniProt Q9HB14).
T1 construct: expressed in transfected cells
T1 sequence (Q9HB14 1-408): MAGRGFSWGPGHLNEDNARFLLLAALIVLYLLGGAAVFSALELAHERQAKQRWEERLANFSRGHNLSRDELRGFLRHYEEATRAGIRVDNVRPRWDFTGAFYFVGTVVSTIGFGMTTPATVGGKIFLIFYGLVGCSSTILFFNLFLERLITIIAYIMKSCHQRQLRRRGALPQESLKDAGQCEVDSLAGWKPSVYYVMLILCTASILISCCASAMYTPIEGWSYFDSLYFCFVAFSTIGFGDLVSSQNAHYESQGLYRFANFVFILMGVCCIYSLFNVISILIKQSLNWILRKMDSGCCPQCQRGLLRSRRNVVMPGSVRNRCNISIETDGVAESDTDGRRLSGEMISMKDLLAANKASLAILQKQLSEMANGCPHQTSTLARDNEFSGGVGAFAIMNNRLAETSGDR
Description: FLIPR thallium influx assay, HEK-hTHIK-1 cells. The format is cell-based. As for the experimental part: HEK-293 cells were transfected with human THIK-1, TREK-1, TWIK-2, or mouse THIK-1 cDNA cloned into pcDNA3.1, using either Fugene HD transfection reagent (Promega) or electroporation (MaxCyte STX instrument). Cells stably expressing the relevant genes were selected based on resistance to 500 μg/ml geneticin (Gibco). For human THIK-1 and TWIK-2 expressing cells, monoclonal lines were isolated by limited dilution cloning; mouse THIK-1 and human TREK-1 expressing cells were maintained as polyclonal pools. The HEK-293 pools and monoclones stably expressing the relevant genes were maintained in DMEM (Life Technologies), supplemented with 10% FCIII (HyClone, Fetal clone III) and 500 μg/ml geneticin. A CHO-Kv2.1 cell line was purchased from Millipore (accession NM_004975) and maintained in F12 (Life Technologies), supplemented with 10% FCSIII (Thermo Scientific) and 500 μg/ml geneticin (Life Technologies). For thallium flux assays, banks of frozen cell aliquots were prepared the day prior to assay, cells were thawed into media and seeded into PDL coated 384-well plates (Corning) at 25,000 (human/mouse THIK-1, TREK-1) or 30,000 (TWIK-2) cells/well (25 μl/well). CHO-Kv2.1 cells were seeded into non-PDL coated plates (Corning) at 5000 cells/well. Plated cells were incubated overnight at 37 °C, 5% CO2 in a humidified atmosphere. For Q-Patch assays, cells were cultured for 7 days prior to assay, dissociated, and diluted to 1–2.5 million/ml in EX-CELL ACF serum free media containing HEPES (25 mM; Life Technologies), penicillin/streptomycin (100 U/ml, 100 μg/ml; Life Technologies) and a trypsin inhibitor (0.04 mg/ml).
A fluorescence-based thallium influx assay (Molecular Devices potassium assay kit) was used to monitor channel activity. In brief, component A was reconstituted in 17 ml of chloride-free assay buffer (130 mM sodium D-gluconate, 5 mM potassium D-gluconate, 2 mM calcium D-gluconate, 1 mM magnesium D-gluconate, 5 mM NaHCO3, 20 mM HEPES; pH adjusted to 7.4 with NaOH and filtered (0.45 μm filter)) and component C reconstituted in 30 μl of DMSO. Components A and C were combined, and probenecid was added (Life Technologies; final assay concentration (FAC) 4.75 mM for HEK cell lines and 2.47 mM for CHO-Kv2.1) to provide the final dye solution. Media was removed from the cell plates and replaced with dye (20 μl/well) and the plates were incubated at room temperature in the dark for 60 min. On the day of the assay, a diluted compound plate (3x FAC in 1.5% DMSO) was created. Control wells contained either DMSO vehicle (1.5%, 3x FAC) or tetrapentylammonium chloride (TPA; Sigma, 258962; 1.5 mM in 1.5% DMSO, 3x FAC). A 3x thallium stimulation plate was also prepared, to provide a FAC of either 1 mM (human THIK-1) or 3 mM (mouse THIK-1, TREK-1, TWIK-2) thallium sulphate (in assay buffer). For Kv2.1, the FAC of thallium sulphate was 2.6 mM and this was prepared in assay buffer containing potassium sulphate (Sigma P9458; FAC 23.3 mM). Following 60 min of dye loading, 10 μl from the 3x FAC compound plate was added into the cell plate, which was then incubated for 15 min at room temperature in the dark. Using a fluorescent imaging plate reader (FLIPR) tetra plate reader, 15 μl thallium stimulus solution was added to the cell plate and the fluorescence signal recorded every second for 1 min (excitation: 470–495 nm, emission: 515–575 nm).

The structures appear in SMILES notation. Like-named read-outs stand apart in the source and are kept apart here.

Regarding `Nc1nonc1-c1nc2ccccc2n1Cc1ccncc1` [C101248], the Kp was in the range of 0.55 to 0.95 in the data set “CNS PK study in rats”; 0.8 to 1.2 in “CNS PK study in mice” (CSF / unbound plasma, read-out: CSF:unbound plasma); 0.7 to 1.5 in the data set “CNS PK study in mice” (brain (unbound) / plasma (unbound), read-out: unbound partition coefficient (Kpu,u)). Besides, in the data set “CNS PK study in mice” (brain, CSF and plasma (all matrices)), the “time of maximal concentration (Cmax)” value came out at 1 h. In addition, the IC50 was 46 nM at THIK-1 (HEK-hTHIK-1, normalised to TPA controls, read-out: IC50, inhibition of THIK-1 constitutive activity (thallium influx)) and around 50 nM on THIK-1 (human THIK-1, read-out: IC50, inhibition of human THIK-1 (abstract)). Further, at THIK-1 (HEK-hTHIK-1, thallium influx, normalised to TPA controls), the maximum inhibition is on record as 102%. For the same compound, at THIK-1 (human and mouse THIK-1 constitutive activity, thallium influx and Q-patch), the “potency relative to tetrapenthylammonium chloride (TPA)” value came to 100 times.
